Laboratory results as given in patent US7863416B2, “Nociceptin-based analgesics” (Synvax, Inc., priority 2001, dated 2011).
Numbered stars: 1 amine (or outer) side, 2 acyl side, 3 side chain; on linkers, the order of the positions; unused ones are H or OH. Square brackets hold non-standard residues; d marks the D form. Peptide text beside a SMILES is read from it. X1 = O=C([C@H](CCc1ccc([N+](=O)[O-])cc1[N+](=O)[O-])N[*:1])[*:2]; Phe(4-NO2) = N[C@@H](Cc1ccc([N+](=O)[O-])cc1)C(=O)O; Phe(4-F) = N[C@@H](Cc1ccc(F)cc1)C(=O)O; Dmt = Cc1cc(O)cc(C)c1C[C@H](N)C(=O)O; Dab = NCC[C@H](N)C(=O)O; Dap = NC[C@H](N)C(=O)O; Ahx = NCCCCCC(=O)O

What was measured:
human ORL1 [1] = target: T1, human ORL1 (Homo sapiens, UniProt P41146); assay: [3H]nociceptin binding to membranes of CHO cells transfected with human ORL1; settings: for Hill Coefficient: Table 5
T1 construct: expressed in transfected cells; host or cells: CHO cells (G418-selected)

human ORL1 [2] = target: T1, human ORL1; assay: Stimulation of [35S]GTPγS binding in membranes of CHO cells transfected with human ORL-1; format: biochemical; settings: for Emax: read-out: % Stimulation ± SEM of [35S]GTPγS binding; for EC50 ± SEM, stimulation of [35S]GTPγS binding: Table 6
Experimental: First, CHO cells transfected with human ORL-1 are scraped from tissue culture dishes into 20 mM HEPES, 1 mM EDTA, and then centrifuged at 500×g for 10 minutes. The cells are then re-suspended in this buffer and homogenized using a Polytron Homogenizer.
The cellular homogenate is next centrifuged at 20,000×g for 20 minutes. Following this, the resulting pellet is re-suspended in a buffer containing 20 mM HEPES, 10 mM MgCl2, and 100 mM NaCl, having a resulting pH of 7.4. The suspension is then re-centrifuged at 20,000×g and suspended once more in the above-listed buffer. The pellet may be frozen at −70° C. prior to the final centrifugation. For the binding assay, membranes (10-20 μg protein) are incubated with [^35S]GTPγγS (50 pM), GDP (usually 10 μM), and the desired compound. The total volume of the mixture is 1 ml, which is incubated for 60 min at 25° C.
Following incubation, samples are filtered over glass fiber filters and counted. […]
In these [^35S]GTPγS assays, binding was conducted as described above. EC50 values and percent stimulation were determined using the program Prism.

T1 sequence (P41146 whole entry): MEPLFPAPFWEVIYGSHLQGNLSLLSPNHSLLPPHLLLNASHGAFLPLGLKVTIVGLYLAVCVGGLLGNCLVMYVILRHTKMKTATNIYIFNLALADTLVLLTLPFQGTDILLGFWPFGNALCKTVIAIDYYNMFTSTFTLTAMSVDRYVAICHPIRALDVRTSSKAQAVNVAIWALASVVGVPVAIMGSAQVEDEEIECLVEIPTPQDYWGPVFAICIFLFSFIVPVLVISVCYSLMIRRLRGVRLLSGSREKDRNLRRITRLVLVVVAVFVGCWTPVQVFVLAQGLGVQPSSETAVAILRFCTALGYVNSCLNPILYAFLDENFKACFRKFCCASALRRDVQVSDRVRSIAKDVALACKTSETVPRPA

| Structure (SMILES) | Hill Coefficient (human ORL1 [1]) | Emax (human ORL1 [2]) [%] | Ki (human ORL1 [1]) [nM] | EC50 ± SEM, stimulation of [35S]GTPγS binding (human ORL1 [2]) |
| --- | --- | --- | --- | --- |
| CC(=O)NCCCCCC(=O)N[C@@H](Cc1ccc(O)cc1)C(=O)N[C@@H](Cc1ccc(O)cc1)C(=O)N[C@@H](CCCNC(=N)N)C(=O)N[C@@H](Cc1c[nH]c2ccccc12)C(=O)N[C@@H](CCCNC(=N)N)C(N)=O [VII-53-B, Ac-ε-aminocaproyl-Tyr-Tyr-Arg-Trp-Arg-NH2] (Ac-[Ahx]YYRWR-NH2) | 0.86 | 39.5 ± 4 |  |  |
| CC(=O)N[C@@H](CCCNC(=N)N)C(=O)N[C@@H](Cc1ccc(O)cc1)C(=O)N[C@@H](Cc1ccc(O)cc1)C(=O)NCCCCCC(=O)N[C@@H](Cc1c[nH]c2ccccc12)C(=O)N[C@@H](CCCNC(=N)N)C(N)=O [VII-55-A, Ac-Arg-Tyr-Tyr-ε-aminocaproyl-Trp-Arg-NH2] (Ac-RYY[Ahx]WR-NH2) | 1.12 | 26.6 ± 1.95 |  |  |
| CC(=O)N[C@@H](CCCNC(=N)N)C(=O)N[C@@H](Cc1ccc(O)cc1)C(=O)N[C@@H](Cc1ccc(O)cc1)C(=O)N[C@@H](CCCNC(=N)N)C(=O)N[C@@H](Cc1c[nH]c2ccccc12)C(=O)NCCCCCC(N)=O [VII-57-C, Ac-Arg-Tyr-Tyr-Arg-Trp-ε-aminocaproyl-NH2] (Ac-RYYRW[Ahx]-NH2) | 0.95 | 37.4 ± 2.64 |  |  |
| CC(=O)N[C@@H](CCCNC(=N)N)C(=O)N[C@@H](Cc1ccc(O)cc1)C(=O)N[C@@H](Cc1ccc(F)cc1)C(=O)N[C@@H](CCCNC(=N)N)C(=O)N[C@@H](Cc1c[nH]c2ccccc12)C(=O)N[C@@H](CCCNC(=N)N)C(N)=O [VII-61-B, Ac-Arg-Tyr-Phe(4-F)-Arg-Trp-Arg-NH2] (Ac-RY[Phe(4-F)]RWR-NH2) | 1.05 | 70.4 ± 1.98 | 0.05 |  |
| CC(=O)N[C@@H](CCCNC(=N)N)C(=O)N[C@@H](Cc1ccc(O)cc1)C(=O)N[C@@H](Cc1ccc([N+](=O)[O-])cc1)C(=O)N[C@@H](CCCNC(=N)N)C(=O)N[C@@H](Cc1c[nH]c2ccccc12)C(=O)N[C@@H](CCCNC(=N)N)C(N)=O [VII-63-B, Ac-Arg-Tyr-Phe(4-NO2)-Arg-Trp-Arg-NH2] (Ac-RY[Phe(4-NO2)]RWR-NH2) | 1.01 | 43.2 ± 0.59 |  |  |
| CC(=O)N[C@@H](CN)C(=O)N[C@@H](Cc1ccc(O)cc1)C(=O)N[C@@H](Cc1ccc(O)cc1)C(=O)N[C@@H](CCCNC(=N)N)C(=O)N[C@@H](Cc1c[nH]c2ccccc12)C(=O)N[C@@H](CCCNC(=N)N)C(N)=O [VII-65-F, Ac-Dap-Tyr-Tyr-Arg-Trp-Arg-NH2] (Ac-[Dap]YYRWR-NH2) | 1.1 | 13.7 ± 1.18 |  | FLAT |
| CC(=O)N[C@@H](CCN)C(=O)N[C@@H](Cc1ccc(O)cc1)C(=O)N[C@@H](Cc1ccc(O)cc1)C(=O)N[C@@H](CCCNC(=N)N)C(=O)N[C@@H](Cc1c[nH]c2ccccc12)C(=O)N[C@@H](CCCNC(=N)N)C(N)=O [VII-67-A, Ac-Dab-Tyr-Tyr-Arg-Trp-Arg-NH2] (Ac-[Dab]YYRWR-NH2) | 1.07 | < 20 |  | FLAT |
| CC(=O)N[C@@H](CCCNC(=N)N)C(=O)N[C@@H](Cc1ccc(O)cc1)C(=O)N[C@@H](CCc1ccc([N+](=O)[O-])cc1[N+](=O)[O-])C(=O)N[C@@H](CCCNC(=N)N)C(=O)N[C@@H](Cc1c[nH]c2ccccc12)C(=O)N[C@@H](CCCNC(=N)N)C(N)=O [VII-71-B, Ac-Arg-Tyr-hPhe(2,4-di-NO2)-Arg-Trp-Arg-NH2] (Ac-RY[X1]RWR-NH2) | 0.88 | 33.6 ± 16.8 |  |  |
| CC(=O)N[C@@H](CCCNC(=N)N)C(=O)N[C@@H](Cc1ccc(O)cc1)C(=O)N[C@@H](Cc1c(C)cc(O)cc1C)C(=O)N[C@@H](CCCNC(=N)N)C(=O)N[C@@H](Cc1c[nH]c2ccccc12)C(=O)N[C@@H](CCCNC(=N)N)C(N)=O [VII-73-A, Ac-Arg-Tyr-Tyr(2,6-di-Me)-Arg-Trp-Arg-NH2] (Ac-RY[Dmt]RWR-NH2) | 0.95 | 52.7 ± 0.175 |  |  |
